# Source: ChEMBL document CHEMBL1145307, “Design and synthesis of tetracyclic nonpeptidic biaryl nitrile inhibitors of cathepsin K” (Bioorg Med Chem Lett, 2006)
# Target: T1, Cathepsin K (Homo sapiens, UniProt P43235)
# T1 sequence (P43235 whole entry): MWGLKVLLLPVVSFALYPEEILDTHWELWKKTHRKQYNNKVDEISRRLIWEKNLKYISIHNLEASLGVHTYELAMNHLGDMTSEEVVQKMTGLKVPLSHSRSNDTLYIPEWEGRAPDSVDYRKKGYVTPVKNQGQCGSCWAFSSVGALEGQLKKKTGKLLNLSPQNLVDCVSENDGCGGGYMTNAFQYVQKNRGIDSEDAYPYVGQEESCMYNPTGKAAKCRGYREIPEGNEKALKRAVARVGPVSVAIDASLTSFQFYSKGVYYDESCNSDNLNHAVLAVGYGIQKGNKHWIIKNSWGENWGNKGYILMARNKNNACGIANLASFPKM
# Test: Inhibition of human cathepsin K
# Conditions: not given
row,Ki [nM],SMILES
1,4.8,CC(C)C[C@@H](C(=O)NCC#N)c1cccc(-c2cccc(-c3csc(CN4CCNCC4)n3)c2)c1
2,8,CC(C)C[C@@H](C(=O)NCC#N)c1cccc(-c2ccc(N3CCNCC3)cc2)c1
3,1.3,CC(C)CC(C(=O)NCC#N)c1cccc(-c2cccc(-c3csc(N4CCN(C)CC4)n3)c2)c1 (racemic)
4,1.3,CC(C)C[C@@H](C(=O)NCC#N)c1cccc(-c2cccc(-c3csc(N4CCN(C(C)(C)C)CC4)n3)c2)c1

# System: not listed separately
# Test: Mean residence time in rat at 0.5 mg/kg, iv
# Type: ADME, organism-based
# Set-up: dose 0.5 mg/kg, route intravenous
# Conditions: in vivo
row,MRT [h],SMILES
1,2.33,CC(C)C[C@@H](C(=O)NCC#N)c1cccc(-c2cccc(-c3csc(CN4CCNCC4)n3)c2)c1
2,2.58,CC(C)C[C@@H](C(=O)NCC#N)c1cccc(-c2ccc(N3CCNCC3)cc2)c1
3,0.9,CC(C)CC(C(=O)NCC#N)c1cccc(-c2cccc(-c3csc(N4CCN(C)CC4)n3)c2)c1 (racemic)
4,1.82,CC(C)C[C@@H](C(=O)NCC#N)c1cccc(-c2cccc(-c3csc(N4CCN(C(C)(C)C)CC4)n3)c2)c1

# System: not listed separately
# Test: Clearance in rat at 0.5 mg/kg, iv
# Type: ADME, organism-based
# Set-up: dose 0.5 mg/kg, route intravenous
# Conditions: in vivo
row,clearance [mL/min/kg],SMILES
1,65,CC(C)C[C@@H](C(=O)NCC#N)c1cccc(-c2cccc(-c3csc(CN4CCNCC4)n3)c2)c1
2,98,CC(C)C[C@@H](C(=O)NCC#N)c1cccc(-c2ccc(N3CCNCC3)cc2)c1
3,32,CC(C)CC(C(=O)NCC#N)c1cccc(-c2cccc(-c3csc(N4CCN(C)CC4)n3)c2)c1 (racemic)
4,60,CC(C)C[C@@H](C(=O)NCC#N)c1cccc(-c2cccc(-c3csc(N4CCN(C(C)(C)C)CC4)n3)c2)c1

# System: not listed separately
# Test: Volume of distribution in rat at 0.5 mg/kg, iv
# Type: ADME, organism-based
# Set-up: dose 0.5 mg/kg, route intravenous
# Conditions: in vivo, read-out: Vss
row,Vd [L/kg],SMILES
1,9.1,CC(C)C[C@@H](C(=O)NCC#N)c1cccc(-c2cccc(-c3csc(CN4CCNCC4)n3)c2)c1
2,14.8,CC(C)C[C@@H](C(=O)NCC#N)c1cccc(-c2ccc(N3CCNCC3)cc2)c1
3,1.7,CC(C)CC(C(=O)NCC#N)c1cccc(-c2cccc(-c3csc(N4CCN(C)CC4)n3)c2)c1 (racemic)
4,6.6,CC(C)C[C@@H](C(=O)NCC#N)c1cccc(-c2cccc(-c3csc(N4CCN(C(C)(C)C)CC4)n3)c2)c1

# Target: Procathepsin L (Homo sapiens, UniProt P07711)
# Test: Inhibition of human cathepsin L
# Conditions: not given
# Sequence of Procathepsin L (P07711 whole entry): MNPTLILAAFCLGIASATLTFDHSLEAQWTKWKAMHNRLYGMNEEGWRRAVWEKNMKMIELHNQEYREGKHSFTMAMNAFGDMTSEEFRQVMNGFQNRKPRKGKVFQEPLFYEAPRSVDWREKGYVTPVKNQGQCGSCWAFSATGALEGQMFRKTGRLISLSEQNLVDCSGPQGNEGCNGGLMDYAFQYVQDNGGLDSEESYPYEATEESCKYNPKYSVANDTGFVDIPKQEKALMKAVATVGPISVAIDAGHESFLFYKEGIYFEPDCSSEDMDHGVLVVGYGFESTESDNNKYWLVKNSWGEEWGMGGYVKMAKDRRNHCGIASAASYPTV
row,Ki [nM],SMILES
1,680,CC(C)C[C@@H](C(=O)NCC#N)c1cccc(-c2cccc(-c3csc(CN4CCNCC4)n3)c2)c1
2,4640,CC(C)C[C@@H](C(=O)NCC#N)c1cccc(-c2ccc(N3CCNCC3)cc2)c1
3,390,CC(C)CC(C(=O)NCC#N)c1cccc(-c2cccc(-c3csc(N4CCN(C)CC4)n3)c2)c1 (racemic)
4,360,CC(C)C[C@@H](C(=O)NCC#N)c1cccc(-c2cccc(-c3csc(N4CCN(C(C)(C)C)CC4)n3)c2)c1

# Target: Cathepsin B (Homo sapiens, UniProt P07858)
# Test: Inhibition of human cathepsin B
# Conditions: not given
row,Ki [nM],SMILES
1,51000,CC(C)C[C@@H](C(=O)NCC#N)c1cccc(-c2cccc(-c3csc(CN4CCNCC4)n3)c2)c1
2,3840,CC(C)C[C@@H](C(=O)NCC#N)c1cccc(-c2ccc(N3CCNCC3)cc2)c1
3,22000,CC(C)CC(C(=O)NCC#N)c1cccc(-c2cccc(-c3csc(N4CCN(C)CC4)n3)c2)c1 (racemic)
4,37000,CC(C)C[C@@H](C(=O)NCC#N)c1cccc(-c2cccc(-c3csc(N4CCN(C(C)(C)C)CC4)n3)c2)c1

# Target: Cathepsin S (Homo sapiens, UniProt P25774)
# Test: Inhibition of human cathepsin S
# Conditions: not given
# Sequence of Cathepsin S (P25774 whole entry): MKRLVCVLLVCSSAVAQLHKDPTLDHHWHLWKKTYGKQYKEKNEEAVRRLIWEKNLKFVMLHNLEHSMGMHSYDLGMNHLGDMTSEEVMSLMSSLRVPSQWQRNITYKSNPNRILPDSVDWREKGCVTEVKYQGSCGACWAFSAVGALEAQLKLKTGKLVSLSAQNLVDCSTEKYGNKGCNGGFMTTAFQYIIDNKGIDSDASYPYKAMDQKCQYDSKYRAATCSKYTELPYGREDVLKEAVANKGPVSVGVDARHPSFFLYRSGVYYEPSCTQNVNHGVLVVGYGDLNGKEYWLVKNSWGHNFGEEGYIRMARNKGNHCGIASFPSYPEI
row,Ki [nM],SMILES
1,7400,CC(C)C[C@@H](C(=O)NCC#N)c1cccc(-c2cccc(-c3csc(CN4CCNCC4)n3)c2)c1
2,1690,CC(C)C[C@@H](C(=O)NCC#N)c1cccc(-c2ccc(N3CCNCC3)cc2)c1
3,1800,CC(C)CC(C(=O)NCC#N)c1cccc(-c2cccc(-c3csc(N4CCN(C)CC4)n3)c2)c1 (racemic)
4,5600,CC(C)C[C@@H](C(=O)NCC#N)c1cccc(-c2cccc(-c3csc(N4CCN(C(C)(C)C)CC4)n3)c2)c1

# System: Osteoclast
# Test: Effect on degradation of bovine bone by rabbit osteoclast
# Type: functional, cell-based
# Conditions: Oryctolagus cuniculus
row,IC50 [nM],SMILES
1,43,CC(C)C[C@@H](C(=O)NCC#N)c1cccc(-c2cccc(-c3csc(CN4CCNCC4)n3)c2)c1
2,95,CC(C)C[C@@H](C(=O)NCC#N)c1cccc(-c2ccc(N3CCNCC3)cc2)c1
3,59,CC(C)CC(C(=O)NCC#N)c1cccc(-c2cccc(-c3csc(N4CCN(C)CC4)n3)c2)c1 (racemic)
4,28,CC(C)C[C@@H](C(=O)NCC#N)c1cccc(-c2cccc(-c3csc(N4CCN(C(C)(C)C)CC4)n3)c2)c1

# Target: Cathepsin (L and K) (Homo sapiens) (UniProt P43235+P07711)
# Test: Selectivity for cathepsin L over cathepsin K
# Type: protein assay
# Conditions: not given
row,Selectivity ratio,SMILES
1,141,CC(C)C[C@@H](C(=O)NCC#N)c1cccc(-c2cccc(-c3csc(CN4CCNCC4)n3)c2)c1
2,580,CC(C)C[C@@H](C(=O)NCC#N)c1cccc(-c2ccc(N3CCNCC3)cc2)c1
3,300,CC(C)CC(C(=O)NCC#N)c1cccc(-c2cccc(-c3csc(N4CCN(C)CC4)n3)c2)c1 (racemic)
4,276,CC(C)C[C@@H](C(=O)NCC#N)c1cccc(-c2cccc(-c3csc(N4CCN(C(C)(C)C)CC4)n3)c2)c1

# Target: Cathepsin (B and K) (Homo sapiens) (UniProt P43235+P07858)
# Test: Selectivity for cathepsin B over cathepsin K
# Type: protein assay
# Conditions: not given
row,Selectivity ratio,SMILES
1,10600,CC(C)C[C@@H](C(=O)NCC#N)c1cccc(-c2cccc(-c3csc(CN4CCNCC4)n3)c2)c1
2,481,CC(C)C[C@@H](C(=O)NCC#N)c1cccc(-c2ccc(N3CCNCC3)cc2)c1
3,16900,CC(C)CC(C(=O)NCC#N)c1cccc(-c2cccc(-c3csc(N4CCN(C)CC4)n3)c2)c1 (racemic)
4,28500,CC(C)C[C@@H](C(=O)NCC#N)c1cccc(-c2cccc(-c3csc(N4CCN(C(C)(C)C)CC4)n3)c2)c1

# Target: Cathepsin (S and K) (Homo sapiens) (UniProt P25774+P43235)
# Test: Selectivity for cathepsin S over cathepsin K
# Type: protein assay
# Conditions: not given
row,Selectivity ratio,SMILES
1,1540,CC(C)C[C@@H](C(=O)NCC#N)c1cccc(-c2cccc(-c3csc(CN4CCNCC4)n3)c2)c1
2,212,CC(C)C[C@@H](C(=O)NCC#N)c1cccc(-c2ccc(N3CCNCC3)cc2)c1
3,1380,CC(C)CC(C(=O)NCC#N)c1cccc(-c2cccc(-c3csc(N4CCN(C)CC4)n3)c2)c1 (racemic)
4,4310,CC(C)C[C@@H](C(=O)NCC#N)c1cccc(-c2cccc(-c3csc(N4CCN(C(C)(C)C)CC4)n3)c2)c1
